Patent publication US9447136B2, “Semisynthetic derivatives of Nystatin A1” (BLIRT S.A., priority 2012, dated 2016)
Values after ≈ are worked out from the molar mass of the structure shown. Where two headings read alike, the source gives them in different places.

How the values were obtained:
[1] = tested on: Candida pseudotropicalis KKP 324; experiment: Antifungal activity in vitro, serial dilution in RPMI 1640; assay type: cell-based; details: Table 2B
Procedure, shortened: (§1)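 Broth serial dilution per M27-A2 in buffered RPMI 1640, pH 7.0. Growth read as optical density at 531 nm; IC50 interpolated as concentration giving 50% of control A531, MIC as lowest concentration giving at most 20% of control A531.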

[2] = tested on: Candida tropicalis KKP 334; experiment: as above; assay type: cell-based; details: Table 2A; RPMI 1640, pH 7.0
Procedure, shortened: as §1

[3] = tested on: Aspergillus niger LOCK E201; experiment: as above; assay type: cell-based; details: Table 2B
Procedure, shortened: as §1

[4] = tested on: Candida stellatoidea CBS 1905; experiment: as above; assay type: cell-based; details: Table 2B
Procedure, shortened: as §1

[5] = tested on: Trichoderma viride LOCK E159; experiment: as above; assay type: cell-based; details: Table 2B
Procedure, shortened: as §1

[6] = tested on: Candida lipolytica KKP 322; experiment: as above; assay type: cell-based; details: Table 2B
Procedure, shortened: as §1

Candida krusei DSM 6128 = experiment: as above; assay type: cell-based; details: Table 2A; RPMI 1640, pH 7.0
Procedure, shortened: as §1

[7] = tested on: Candida quilliermondii DSM 11947; experiment: as above; assay type: cell-based; details: Table 2B
Procedure, shortened: as §1

Candida arborea KKP 319 = experiment: as above; assay type: cell-based; details: Table 2B
Procedure, shortened: as §1

[8] = tested on: Candida dubliniensis CBS 7987; experiment: as above; assay type: cell-based; details: Table 2B
Procedure, shortened: as §1

[9] = tested on: Candida glabrata DSM 11226; experiment: as above; assay type: cell-based; details: Table 2A; RPMI 1640, pH 7.0
Procedure, shortened: as §1

[10] = tested on: Candida parapsilosis DSM 5784; experiment: as above; assay type: cell-based; details: Table 2B
Procedure, shortened: as §1

[11] = tested on: Candida albicans ATCC 10231; experiment: as above; assay type: cell-based; details: for Antifungal activity Candida albicans ATCC 10231 IC50 / Antifungal activity Candida albicans ATCC 10231 MIC: Table 2A, RPMI 1640, pH 7.0; for Antifungal activity Candida albicans ATCC 10231 IC50: A531 50% of control; for Antifungal activity Candida albicans ATCC 10231 MIC: A531 at most 20% of control; for MIC Candida albicans ATCC 10231: Table 2B
Procedure, shortened: as §1

[12] = tested on: Saccharomyces cerevisiae ATCC 9763; experiment: as above; assay type: cell-based; details: for Antifungal activity Saccharomyces cerevisiae ATCC 9763 MIC: Table 2A, RPMI 1640, pH 7.0, A531 at most 20% of control; for MIC Saccharomyces cerevisiae ATCC 9763: Table 2B
Procedure, shortened: as §1

[13] = tested on: Candida lusitaniae DSM 70102; experiment: as above; assay type: cell-based; details: Table 2A; RPMI 1640, pH 7.0
Procedure, shortened: as §1

LLC-PK1 = experiment: Cytotoxic activity against mammalian cells in tissue culture (MTT); assay type: cell-based, pig; details: LLC-PK1, 120 h, MTT
Procedure, shortened: (§2)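 Cells at 1.2×10^4/well were exposed to serial 2× DMSO dilutions for 120 h at 37 °C: CCRF-CEM in RPMI 1640 + 10% FBS, HepG2 in MEM + 10% FBS, LLC-PK1 in Medium 199 + 3% FBS. MTT was added for 4 h and A540 read. IC50 is the concentration halving A540 versus DMSO control.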

Candida albicans STY7 = experiment: Antifungal activity towards resistant (MDR) strains; assay type: cell-based; details: 5674 mutant derivative, deletion of CDR2
Description: (§3) The determination of antifungal activity was performed by the serial dilutions method in buffered RPMI 1640 medium, in a 96-wells microplates, according to the standard procedure (National Committee for Clinical Laboratory Standards. Reference method for broth dilution antifungal susceptibility testing of yeast, approved standard, 2nd ed. M27-A2 vol. 22 Wayne, Pa., 2002). The optical density of cells suspension was measured using a microplates reader (Victor^3, Perkin-Elmer) at the wavelength λ=660 nm (A660). On the basis of received results the diagrams on interrelation between the A660 value and the concentration of tested compound were made. From these graphs MIC values were read, that are the concentrations of tested compounds, in the presence at which A660 value is at most 20% of A660 value measured in control sample.

Candida albicans Gu4 = experiment: as above; assay type: cell-based; details: fluconazole sensitive, parent strain for Gu5
Description: as §3

Candida albicans 5674 = experiment: as above; assay type: cell-based; details: C. albicans 5674 overexpressing CDR1 and CDR2
Description: as §3

Candida albicans STY31 = experiment: as above; assay type: cell-based; details: 5674 mutant derivative, deletion of CDR1 and CDR2
Description: as §3

Candida albicans B3 = experiment: as above; assay type: cell-based; details: fluconazole sensitive, parent strain for B4
Description: as §3

Candida albicans F5 = experiment: as above; assay type: cell-based; details: fluconazole-resistant due to the overexpression of CaMDR1 and ERG11
Description: as §3

Candida albicans STY19 = experiment: as above; assay type: cell-based; details: 5674 mutant derivative, deletion of CDR1
Description: as §3

Candida albicans Gu5 = experiment: as above; assay type: cell-based; details: fluconazole-resistant due to the overexpression of CDR1 and CDR2
Description: as §3

Candida albicans F2 = experiment: as above; assay type: cell-based; details: fluconazole sensitive, parent strain for F5
Description: as §3

Candida albicans B4 = experiment: as above; assay type: cell-based; details: fluconazole-resistant due to the overexpression of CaMDR1
Description: as §3

Human erythrocytes = experiment: Hemotoxicity (hemolytic activity); details: for EH10: concentration causing 10% of hemolysis
Procedure, shortened: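 Human erythrocytes in saline (2×10^7/ml) were incubated with serially diluted compound at 37 °C for 30 min, then centrifuged. Released hemoglobin was read as A540 against 0.1% Triton X-100 as full hemolysis. EH50 is the interpolated concentration giving 50% of the control A540.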

HepG2 = experiment: Cytotoxic activity against mammalian cells in tissue culture (MTT); assay type: cell-based, human; details: HepG2, 120 h, MTT
Procedure, shortened: as §2

CCRF-CEM = experiment: as above; assay type: cell-based, human; details: CCRF-CEM, 120 h, MTT
Procedure, shortened: as §2

Molecule	MIC Candida pseudotropicalis KKP 324 [1] [µg/mL]	Antifungal activity Candida tropicalis KKP 334 MIC [2] [µg/mL]	MIC Aspergillus niger LOCK E201 [3] [µg/mL]	MIC Candida stellatoidea CBS 1905 [4] [µg/mL]	MIC Trichoderma viride LOCK E159 [5] [µg/mL]	MIC Candida lipolytica KKP 322 [6] [µg/mL]	Antifungal activity Candida krusei DSM 6128 MIC (Candida krusei DSM 6128) [µg/mL]	MIC Candida quilliermondii DSM 11947 [7] [µg/mL]	MIC Candida arborea KKP 319 (Candida arborea KKP 319) [µg/mL]	MIC Candida dubliniensis CBS 7987 [8] [µg/mL]	Antifungal activity Candida glabrata DSM 11226 MIC [9] [µg/mL]	MIC Candida parapsilosis DSM 5784 [10] [µg/mL]	Antifungal activity Candida albicans ATCC 10231 IC50 [11] [µg/mL]	Antifungal activity Candida albicans ATCC 10231 MIC [11] [µg/mL]	MIC Candida albicans ATCC 10231 [11] [µg/mL]	Antifungal activity Saccharomyces cerevisiae ATCC 9763 MIC [12] [µg/mL]	MIC Saccharomyces cerevisiae ATCC 9763 [12] [µg/mL]	Cytotoxicity IC50 LLC-PK1 (LLC-PK1) [µg/mL]	MIC Candida albicans STY7 (Candida albicans STY7) [µg/mL]	MIC Candida albicans Gu4 (Candida albicans Gu4) [µg/mL]	further results
CC1OC(O[C@H]2/C=C/C=C/C=C/C=C/CC/C=C/C=C/[C@H](C)[C@@H](O)[C@@H](C)[C@H](C)OC(=O)C[C@H](O)C[C@H](O)C[C@H](O)CC[C@@H](O)[C@H](O)CC3(O)C[C@H](O)[C@@H](C(=O)O)[C@H](C2)O3)C(O)C(NC(=S)NCC(C)(C)CN(C)C)C1O (stereo partly shown) [Compound N19, N-{3-[3-(N,N-dimethylamino)-2,2-dimethylpropyl]thioureidyl}nystatin A1]	4 (≈ 3.64 µM)	4	8 (≈ 7.28 µM)	8 (≈ 7.28 µM)	8 (≈ 7.28 µM)	4 (≈ 3.64 µM)	8	4 (≈ 3.64 µM)	4 (≈ 3.64 µM)	4 (≈ 3.64 µM)	8	4 (≈ 3.64 µM)	2.90	4	4 (≈ 3.64 µM)	4	4 (≈ 3.64 µM)	>100	4 (≈ 3.64 µM)	4 (≈ 3.64 µM)	Antifungal activity Candida lusitaniae DSM 70102 MIC [13]: 4 µg/mL; MIC Candida albicans 5674 (Candida albicans 5674): 4 µg/mL (≈ 3.64 µM); MIC Candida albicans STY31 (Candida albicans STY31): 4 µg/mL (≈ 3.64 µM); MIC Candida albicans B3 (Candida albicans B3): 4 µg/mL (≈ 3.64 µM); MIC Candida albicans F5 (Candida albicans F5): 4 µg/mL (≈ 3.64 µM); MIC Candida albicans STY19 (Candida albicans STY19): 4 µg/mL (≈ 3.64 µM); MIC Candida albicans Gu5 (Candida albicans Gu5): 4 µg/mL (≈ 3.64 µM); MIC Candida albicans F2 (Candida albicans F2): 4 µg/mL (≈ 3.64 µM); MIC Candida albicans B4 (Candida albicans B4): 4 µg/mL (≈ 3.64 µM); EH10 (Human erythrocytes; human erythrocytes): 209.91 µg/mL; Cytotoxicity IC50 HepG2 (HepG2): >100 µg/mL; Cytotoxicity IC50 CCRF-CEM (CCRF-CEM): >100 µg/mL
CCN(CC)[C@@H](Cc1ccccc1)C(=O)NC1C(O)C(C)OC(O[C@H]2/C=C/C=C/C=C/C=C/CC/C=C/C=C/[C@H](C)[C@@H](O)[C@@H](C)[C@H](C)OC(=O)C[C@H](O)C[C@H](O)C[C@H](O)CC[C@@H](O)[C@H](O)CC3(O)C[C@H](O)[C@@H](C(=O)O)[C@H](C2)O3)C1O (stereo partly drawn) [Compound N46, N—[L-(N,N-diethyl)phenylalanyl]nystatin A1]	16 (≈ 14.2 µM)	4	32 (≈ 28.3 µM)	8 (≈ 7.08 µM)	16 (≈ 14.2 µM)	16 (≈ 14.2 µM)	8	32 (≈ 28.3 µM)	32 (≈ 28.3 µM)	16 (≈ 14.2 µM)	8	32 (≈ 28.3 µM)	2.83	4	4 (≈ 3.54 µM)	4	4 (≈ 3.54 µM)	>100	32 (≈ 28.3 µM)	8 (≈ 7.08 µM)	MIC Candida albicans 5674 (Candida albicans 5674): 32 µg/mL (≈ 28.3 µM); MIC Candida albicans STY31 (Candida albicans STY31): 32 µg/mL (≈ 28.3 µM); MIC Candida albicans B3 (Candida albicans B3): 8 µg/mL (≈ 7.08 µM); MIC Candida albicans F5 (Candida albicans F5): 16 µg/mL (≈ 14.2 µM); MIC Candida albicans STY19 (Candida albicans STY19): 32 µg/mL (≈ 28.3 µM); MIC Candida albicans Gu5 (Candida albicans Gu5): 16 µg/mL (≈ 14.2 µM); MIC Candida albicans F2 (Candida albicans F2): 16 µg/mL (≈ 14.2 µM); MIC Candida albicans B4 (Candida albicans B4): 8 µg/mL (≈ 7.08 µM); % of hemolysis at the concentration 60 μg ml^−1 (Human erythrocytes): 0.37%; Cytotoxicity IC50 HepG2 (HepG2): >100 µg/mL; Cytotoxicity IC50 CCRF-CEM (CCRF-CEM): >100 µg/mL
N-[L-(N,N-dimethyl)phenylalanyl]nystatin A1 [Compound N45]	4	4	8	4	16	8	8	4	8	2	4	4	2.83	4	4	2	2	>100	8	4	MIC Candida albicans 5674 (Candida albicans 5674): 8 µg/mL; MIC Candida albicans STY31 (Candida albicans STY31): 8 µg/mL; MIC Candida albicans B3 (Candida albicans B3): 4 µg/mL; MIC Candida albicans F5 (Candida albicans F5): 8 µg/mL; MIC Candida albicans STY19 (Candida albicans STY19): 4 µg/mL; MIC Candida albicans Gu5 (Candida albicans Gu5): 4 µg/mL; MIC Candida albicans F2 (Candida albicans F2): 8 µg/mL; MIC Candida albicans B4 (Candida albicans B4): 4 µg/mL; % of hemolysis at the concentration 300 μg ml^−1 (Human erythrocytes): 7.11%; EH10 (Human erythrocytes; human erythrocytes): >300 µg/mL; Cytotoxicity IC50 HepG2 (HepG2): >100 µg/mL; Cytotoxicity IC50 CCRF-CEM (CCRF-CEM): >100 µg/mL
N-fructosyl-N-methylnystatin A1 [Compound N28]	8	8	16	8	16	8	16	16	32	8	16	16	5.80	8	8	4	4	>100	16	8	MIC Candida albicans 5674 (Candida albicans 5674): 16 µg/mL; MIC Candida albicans STY31 (Candida albicans STY31): 16 µg/mL; MIC Candida albicans B3 (Candida albicans B3): 8 µg/mL; MIC Candida albicans F5 (Candida albicans F5): 16 µg/mL; MIC Candida albicans STY19 (Candida albicans STY19): 16 µg/mL; MIC Candida albicans Gu5 (Candida albicans Gu5): 16 µg/mL; MIC Candida albicans F2 (Candida albicans F2): 8 µg/mL; MIC Candida albicans B4 (Candida albicans B4): 8 µg/mL; Hemotoxicity BEH50 (Human erythrocytes; human erythrocytes, 37° C., 30 minutes, concentration causing 50% hemolysis, maximum concentration 300 μg/ml): >250 µg/mL; % of hemolysis at the concentration 60 μg ml^−1 (Human erythrocytes; human erythrocytes, 60 μg ml^−1): 0.17%; Cytotoxicity IC50 HepG2 (HepG2): >100 µg/mL; Cytotoxicity IC50 CCRF-CEM (CCRF-CEM): >100 µg/mL
